Values after ≈ are worked out from the molar mass of the structure shown. Read-outs that look alike come from different tables or passages of the source.
Tests used:
[1] = test system: A549 (human lung cancer cells); assay: MTT assay, A549; assay type: cell-based; details: 72 h
Experimental: (§1) 1. Sample preparation: After dissolved with DMSO (Merck), PBS (−) was added to make 1000 μg/ml solution or a uniform suspension, and then diluted with PBS (−) containing the DMSO. Doxorubicin (DOX) was used as the positive control drug.
(§2) 2. Cell Line • 1) A549 (human lung cancer cells); 2) HCT116 (human colon cancer cells); 3) HepG2 (human hepatoma cells); 4) ZR-75-30 (human breast cancer cells); 5) U87MG (human brain star glioblastoma)
(§3) DMEM+5-10% FBS+double resistant
(§4) MTT assay. 100 μl cell suspension was added at a concentration of 4˜5×10^4 cells/ml to each well of a 96-well plate, and was set at 37° C., 5% CO2 in the incubator. After 24 h, the sample solution was added, 10 μl/hole, double wells were set, 37° C., acting for 72 h at 5% CO2. […] of 5 mg/ml was added to each well, the dissolving liquid was added after acted for 4 h, 100 μl/hole, kept in the incubator, and read 570 nm OD with MK-2 automatic microplate reader after dissolution.

[2] = test system: ZR-75-30 (human breast cancer cells); assay: MTT assay, ZR-75-30; assay type: cell-based; details: 72 h
Experimental: as §1, §2, §3, §4

[3] = test system: HCT116 (human colon cancer cells); assay: MTT assay, HCT116; assay type: cell-based; details: HCT-116, 72 h
[4] = molecular target: PI3Kα (Homo sapiens, UniProt P42336); assay: Kinase-Glo Luminescent Kinase Assay, PI3Kα; assay type: biochemical
[5] = test system: HepG2 (human hepatoma cells); assay: MTT assay, HepG2; assay type: cell-based; details: 72 h
Experimental: as §1, §2, §3, §4

[6] = test system: U87MG (human brain star glioblastoma); assay: MTT assay, U87MG; assay type: cell-based; details: U-87 MG, 72 h
Experimental: as §1, §2, §3, §4

[7] = molecular target: PI3K delta (Homo sapiens, UniProt O00329); assay: Kinase-Glo Luminescent Kinase Assay, PI3K delta; assay type: biochemical
[8] = test system: 60 kinds of human cancer cell lines; assay: Cytotoxicity test on 60 kinds of human cancer cell lines from the US National Cancer Institute; assay type: cell-based
Description: (§5) Cytotoxicity Test of Compound 9, 10 and 17 on 60 Kinds of Human Cancer Cell Lines from the US National Cancer Institute

[9] = test system: PC3; assay: NCI cytotoxicity test, PC3; assay type: cell-based; details: Homo sapiens, PC-3
Description: as §5

[10] = molecular target: PI3Kγ (Homo sapiens, UniProt P48736); assay: ADP-Glo Luminescent Kinase Assay, PI3Kγ; assay type: biochemical; details: read-out: IC50 on PI3K gamma
[11] = test system: SN12C; assay: NCI cytotoxicity test, SN12C; assay type: cell-based; details: Homo sapiens
Description: as §5

[12] = molecular target: mTOR (Homo sapiens, UniProt P42345); assay: Lance Ultra Assay, mTOR; assay type: biochemical
[13] = test system: COLO205; assay: NCI cytotoxicity test, COLO205; assay type: cell-based; details: Homo sapiens, COLO 205
Description: as §5

[14] = test system: five human tumor cells; assay: MTT assay, five human tumor cells (summary in words); assay type: cell-based; details: A549, HCT116, HepG2, ZR-75-30, U87MG
Experimental: as §1, §2, §3, §4

[15] = test system: SF539; assay: NCI cytotoxicity test, SF539; assay type: cell-based; details: Homo sapiens, SF-539
Description: as §5

[16] = test system: MCF7; assay: NCI cytotoxicity test, MCF7; assay type: cell-based; details: Homo sapiens
Description: as §5

[17] = test system: OVCAR3; assay: NCI cytotoxicity test, OVCAR3; assay type: cell-based; details: Homo sapiens, OVCAR-3
Description: as §5

[18] = molecular target: PI3Kβ (Homo sapiens, UniProt P42338); assay: ADP-Glo Luminescent Kinase Assay, PI3Kβ; assay type: biochemical; details: read-out: IC50 on PI3K beta
[19] = test system: A549; assay: NCI cytotoxicity test, A549; assay type: cell-based; details: Homo sapiens
Description: as §5

[20] = on the 60 kinds of tumor cells, read-out: Average GI50

Sequence of PI3K delta (O00329 whole entry): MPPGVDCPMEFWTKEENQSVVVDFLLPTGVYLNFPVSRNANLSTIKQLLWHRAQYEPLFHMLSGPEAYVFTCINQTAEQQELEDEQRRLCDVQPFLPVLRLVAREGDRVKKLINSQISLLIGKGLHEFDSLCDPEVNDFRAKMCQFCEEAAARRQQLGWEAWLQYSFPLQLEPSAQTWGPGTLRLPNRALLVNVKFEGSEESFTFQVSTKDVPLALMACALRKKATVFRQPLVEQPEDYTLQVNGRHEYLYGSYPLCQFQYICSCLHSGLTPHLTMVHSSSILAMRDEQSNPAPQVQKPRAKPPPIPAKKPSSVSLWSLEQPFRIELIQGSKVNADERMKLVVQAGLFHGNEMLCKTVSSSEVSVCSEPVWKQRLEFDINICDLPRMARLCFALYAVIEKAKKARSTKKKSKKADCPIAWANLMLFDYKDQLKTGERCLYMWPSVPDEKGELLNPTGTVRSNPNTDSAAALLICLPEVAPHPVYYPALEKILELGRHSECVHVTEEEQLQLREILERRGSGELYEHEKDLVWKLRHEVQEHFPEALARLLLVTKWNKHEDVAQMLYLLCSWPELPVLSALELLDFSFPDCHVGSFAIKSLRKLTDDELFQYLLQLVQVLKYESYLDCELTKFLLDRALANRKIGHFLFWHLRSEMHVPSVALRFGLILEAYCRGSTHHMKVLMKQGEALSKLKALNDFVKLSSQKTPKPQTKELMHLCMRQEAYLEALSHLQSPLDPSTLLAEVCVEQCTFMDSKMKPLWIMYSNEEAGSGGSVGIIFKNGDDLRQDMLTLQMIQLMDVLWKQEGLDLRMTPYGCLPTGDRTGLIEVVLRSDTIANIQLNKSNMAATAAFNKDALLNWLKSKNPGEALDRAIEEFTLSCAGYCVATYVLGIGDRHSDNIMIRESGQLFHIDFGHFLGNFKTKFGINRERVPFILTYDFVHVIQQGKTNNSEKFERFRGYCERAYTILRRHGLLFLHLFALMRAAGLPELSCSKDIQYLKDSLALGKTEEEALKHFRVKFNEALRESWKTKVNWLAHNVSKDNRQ
Sequence of PI3K delta (P27986 whole entry partner): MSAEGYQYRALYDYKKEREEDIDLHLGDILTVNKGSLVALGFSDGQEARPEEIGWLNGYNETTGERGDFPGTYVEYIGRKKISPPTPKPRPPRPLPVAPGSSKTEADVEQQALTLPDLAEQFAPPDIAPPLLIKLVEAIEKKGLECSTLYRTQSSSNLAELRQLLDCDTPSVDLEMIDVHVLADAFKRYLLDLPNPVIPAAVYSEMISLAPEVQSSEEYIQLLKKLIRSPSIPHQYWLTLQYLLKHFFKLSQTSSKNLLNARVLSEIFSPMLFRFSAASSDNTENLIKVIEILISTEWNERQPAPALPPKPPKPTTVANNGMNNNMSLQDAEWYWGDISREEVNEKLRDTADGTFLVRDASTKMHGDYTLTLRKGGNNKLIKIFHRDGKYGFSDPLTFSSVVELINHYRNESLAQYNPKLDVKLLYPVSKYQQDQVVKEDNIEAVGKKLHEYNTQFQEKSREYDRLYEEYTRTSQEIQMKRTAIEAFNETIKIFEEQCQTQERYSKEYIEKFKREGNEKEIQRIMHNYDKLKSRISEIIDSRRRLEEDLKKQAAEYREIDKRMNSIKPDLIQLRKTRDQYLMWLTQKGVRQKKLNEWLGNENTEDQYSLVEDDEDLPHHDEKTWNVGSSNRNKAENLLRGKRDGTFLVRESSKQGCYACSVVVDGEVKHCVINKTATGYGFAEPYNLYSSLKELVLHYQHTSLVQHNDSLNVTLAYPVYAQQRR
Sequence of PI3Kβ (P42338 whole entry, species assumed): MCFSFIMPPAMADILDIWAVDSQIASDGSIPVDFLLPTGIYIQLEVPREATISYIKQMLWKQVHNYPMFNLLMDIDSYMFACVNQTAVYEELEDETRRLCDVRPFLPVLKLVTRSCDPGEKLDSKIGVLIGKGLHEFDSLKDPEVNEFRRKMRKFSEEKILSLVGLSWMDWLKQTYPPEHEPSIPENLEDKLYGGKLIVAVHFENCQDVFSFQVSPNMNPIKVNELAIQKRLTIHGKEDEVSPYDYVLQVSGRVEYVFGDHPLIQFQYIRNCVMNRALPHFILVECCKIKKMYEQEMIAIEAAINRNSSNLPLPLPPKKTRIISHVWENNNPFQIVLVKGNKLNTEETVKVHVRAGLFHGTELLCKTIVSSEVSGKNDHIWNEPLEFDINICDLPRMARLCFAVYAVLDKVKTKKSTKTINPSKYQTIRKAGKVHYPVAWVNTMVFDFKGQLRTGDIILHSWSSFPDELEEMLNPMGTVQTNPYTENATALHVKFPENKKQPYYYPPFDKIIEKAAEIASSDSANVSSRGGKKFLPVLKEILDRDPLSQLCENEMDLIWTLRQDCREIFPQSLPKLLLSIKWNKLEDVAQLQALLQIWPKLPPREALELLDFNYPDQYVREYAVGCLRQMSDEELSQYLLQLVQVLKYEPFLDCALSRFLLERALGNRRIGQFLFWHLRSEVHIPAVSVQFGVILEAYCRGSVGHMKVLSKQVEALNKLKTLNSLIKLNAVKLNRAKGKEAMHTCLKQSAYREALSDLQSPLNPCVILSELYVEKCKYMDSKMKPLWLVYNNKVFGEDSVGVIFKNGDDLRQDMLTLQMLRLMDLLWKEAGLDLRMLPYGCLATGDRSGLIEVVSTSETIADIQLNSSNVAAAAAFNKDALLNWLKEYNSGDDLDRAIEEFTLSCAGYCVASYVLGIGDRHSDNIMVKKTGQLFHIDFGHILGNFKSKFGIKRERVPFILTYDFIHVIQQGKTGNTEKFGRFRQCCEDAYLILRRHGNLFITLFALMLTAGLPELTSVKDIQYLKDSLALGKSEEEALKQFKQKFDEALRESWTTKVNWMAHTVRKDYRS
Sequence of PI3Kβ (P27986 whole entry partner, species assumed): as the sequence (P27986 whole entry partner) above
Sequence of PI3Kα (P42336 whole entry, species assumed): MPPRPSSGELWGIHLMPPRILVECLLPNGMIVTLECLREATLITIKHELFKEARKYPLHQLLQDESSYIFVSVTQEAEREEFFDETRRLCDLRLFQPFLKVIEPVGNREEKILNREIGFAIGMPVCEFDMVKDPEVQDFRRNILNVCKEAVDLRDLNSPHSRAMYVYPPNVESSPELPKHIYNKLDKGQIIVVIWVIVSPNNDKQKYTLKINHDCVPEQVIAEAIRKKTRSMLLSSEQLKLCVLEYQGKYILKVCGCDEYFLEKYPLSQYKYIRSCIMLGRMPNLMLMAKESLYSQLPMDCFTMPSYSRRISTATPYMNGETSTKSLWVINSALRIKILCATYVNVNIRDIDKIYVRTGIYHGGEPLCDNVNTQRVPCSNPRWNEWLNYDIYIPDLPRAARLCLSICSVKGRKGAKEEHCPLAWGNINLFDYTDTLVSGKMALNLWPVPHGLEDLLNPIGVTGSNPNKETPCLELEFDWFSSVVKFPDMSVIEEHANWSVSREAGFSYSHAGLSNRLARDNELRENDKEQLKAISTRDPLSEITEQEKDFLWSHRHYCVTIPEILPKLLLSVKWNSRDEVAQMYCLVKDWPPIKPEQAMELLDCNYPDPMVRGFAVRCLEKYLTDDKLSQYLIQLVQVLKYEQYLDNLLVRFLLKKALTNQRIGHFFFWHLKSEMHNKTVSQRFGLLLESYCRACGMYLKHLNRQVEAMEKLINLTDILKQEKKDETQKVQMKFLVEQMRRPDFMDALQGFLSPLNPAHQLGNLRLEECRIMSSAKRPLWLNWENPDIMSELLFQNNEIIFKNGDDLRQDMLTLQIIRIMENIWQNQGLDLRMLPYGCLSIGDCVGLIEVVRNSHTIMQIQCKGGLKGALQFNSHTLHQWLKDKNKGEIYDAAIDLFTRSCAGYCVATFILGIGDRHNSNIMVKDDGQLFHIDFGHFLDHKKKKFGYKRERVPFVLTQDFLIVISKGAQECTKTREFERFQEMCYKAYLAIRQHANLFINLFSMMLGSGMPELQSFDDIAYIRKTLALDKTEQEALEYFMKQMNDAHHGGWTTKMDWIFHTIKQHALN
Sequence of PI3Kα (P27986 whole entry partner, species assumed): as the sequence (P27986 whole entry partner) above
Sequence of PI3Kγ (P48736 whole entry, species assumed): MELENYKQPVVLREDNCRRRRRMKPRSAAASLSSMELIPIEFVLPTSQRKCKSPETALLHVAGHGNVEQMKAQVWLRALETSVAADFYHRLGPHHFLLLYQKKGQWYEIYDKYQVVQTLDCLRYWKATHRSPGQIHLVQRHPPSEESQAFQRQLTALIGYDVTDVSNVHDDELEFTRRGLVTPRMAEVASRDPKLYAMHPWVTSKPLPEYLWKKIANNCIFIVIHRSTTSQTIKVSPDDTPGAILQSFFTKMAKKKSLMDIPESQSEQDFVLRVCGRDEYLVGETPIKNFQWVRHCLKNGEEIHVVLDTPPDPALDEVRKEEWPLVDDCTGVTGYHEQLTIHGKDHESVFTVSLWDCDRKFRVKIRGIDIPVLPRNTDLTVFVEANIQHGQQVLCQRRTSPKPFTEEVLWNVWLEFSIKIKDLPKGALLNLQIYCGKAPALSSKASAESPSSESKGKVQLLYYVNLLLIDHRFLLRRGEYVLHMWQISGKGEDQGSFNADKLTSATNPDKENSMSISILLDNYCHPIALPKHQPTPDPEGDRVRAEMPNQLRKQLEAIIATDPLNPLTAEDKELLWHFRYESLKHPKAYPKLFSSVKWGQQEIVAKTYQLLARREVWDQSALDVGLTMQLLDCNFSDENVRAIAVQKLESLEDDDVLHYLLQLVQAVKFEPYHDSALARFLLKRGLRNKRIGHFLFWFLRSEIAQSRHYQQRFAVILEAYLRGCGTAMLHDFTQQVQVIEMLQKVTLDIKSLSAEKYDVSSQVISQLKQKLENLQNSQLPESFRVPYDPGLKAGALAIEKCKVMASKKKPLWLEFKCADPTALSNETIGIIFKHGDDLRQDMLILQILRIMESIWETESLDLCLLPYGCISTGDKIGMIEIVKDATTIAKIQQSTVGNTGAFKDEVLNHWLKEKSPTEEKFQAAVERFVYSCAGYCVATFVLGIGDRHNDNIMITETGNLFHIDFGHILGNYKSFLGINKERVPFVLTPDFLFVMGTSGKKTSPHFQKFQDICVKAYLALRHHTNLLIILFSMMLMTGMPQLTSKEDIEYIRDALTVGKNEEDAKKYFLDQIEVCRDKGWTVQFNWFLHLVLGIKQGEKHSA

| SMILES | IC50 [1] | IC50 [2] | IC50 [3] | IC50 [4] | IC50 [5] | melting point | IC50 [6] | also measured |
| --- | --- | --- | --- | --- | --- | --- | --- | --- |
| CCN(CC)Cc1ccc(-c2ccnc3ccc(-c4cnc(OC)c(NS(=O)(=O)c5ccc(F)cc5F)c4)cc23)cc1 [Compound 5, N-(5-(4-(4-((diethylamine)methyl)phenyl)quinolin-6-yl)-2-methoxypyridine-3-yl)-2,4-difluorobenzenesulfonamide] | 0.013 µg/mL (≈ 0.0221 µM) | 0.783 µg/mL (≈ 1.33 µM) | 0.00293 µg/mL (≈ 0.00498 µM) | 1.1 nM | 0.613 µg/mL (≈ 1.04 µM) | 106 to 108 °C | 2.88 µg/mL (≈ 4.89 µM) | – |
| COC(=O)c1ccc(-c2ccnc3ccc(-c4cnc(OC)c(NS(=O)(=O)c5ccc(F)cc5F)c4)cc23)cc1 [Compound 7, 4-(6-(5-(2,4-difluorobenzenesulfonamideyl)-6-methoxypyridine-3-yl)quinolin-4-yl)methyl benzoate] | 0.014 µg/mL (≈ 0.0249 µM) | 1.74 µg/mL (≈ 3.1 µM) | 0.277 µg/mL (≈ 0.493 µM) | 1.5 nM | 1.16 µg/mL (≈ 2.07 µM) | 69 to 72 °C | 3.9 µg/mL (≈ 6.95 µM) | – |
| COc1ncc(-c2ccc3nccc(Cl)c3c2)cc1NS(=O)(=O)c1ccc(F)cc1F [Compound 4, N-(5-(4-chlorinequinolin-6-yl)-2-methoxypyridine-3-yl)-2,4-difluorobenzenesulfonamide] | 1.36 µg/mL (≈ 2.94 µM) | 2.59 µg/mL (≈ 5.61 µM) | 3.04 µg/mL (≈ 6.59 µM) | 2.3 nM | 2.26 µg/mL (≈ 4.89 µM) | 171 to 173 °C | > 100 µg/mL | – |
| COc1ncc(-c2ccc3nccc(-c4ccc(CN(C)CCO)cc4)c3c2)cc1NS(=O)(=O)c1ccc(F)cc1F [Compound 17, N-(5-(4-(4-(((2-hydroxyethyl)(methyl)amino)methyl)phenyl)quinolin-6-yl)-2-methoxypyridine-3-yl)-2,4-difluorobenzenesulfonamide] | 0.012 µg/mL (≈ 0.0203 µM) | – | 0.0028 µg/mL (≈ 0.00474 µM) | 0.59 nM | – | 84 to 85 °C | 0.092 µg/mL (≈ 0.156 µM) | IC50 [7]: 3.4 nM; GI50 ([8]; on the 38 tumor cell lines, read-out: average half growth inhibitory concentration (GI50)): < 10 nM; GI50 [8, 20]: 15.8 nM; GI50 [9]: < 10 nM; IC50 [10]: 1.1 nM; GI50 [11]: < 10 nM; IC50 [12]: 2.2 nM; GI50 [13]: < 10 nM; in vitro proliferation inhibition (in words) [14]: high in vitro proliferation inhibition; GI50 [15]: < 10 nM; GI50 [16]: < 10 nM; GI50 [17]: < 10 nM; IC50 [18]: 1.1 nM; GI50 [19]: < 10 nM |
| CCOC(=O)c1ccc(-c2ccnc3ccc(-c4cnc(OC)c(NS(=O)(=O)c5ccc(F)cc5F)c4)cc23)cc1 [Compound 8, 4-(6-(5-(2,4-difluorobenzenesulfonamideyl)-6-methoxypyridine-3-yl)quinolin-4-yl) ethyl benzoate] | 0.043 µg/mL (≈ 0.0747 µM) | 2.45 µg/mL (≈ 4.26 µM) | 0.235 µg/mL (≈ 0.408 µM) | 2.6 nM | 2.65 µg/mL (≈ 4.6 µM) | 90 to 92 °C | 11.7 µg/mL (≈ 20.3 µM) | – |
| COc1ncc(-c2ccc3nccc(-c4ccc(Cn5cncn5)cc4)c3c2)cc1NS(=O)(=O)c1ccc(F)cc1F [Compound 10, N-(5-(4-(4-((1H-1,2,4-triazole-1-yl)methyl)phenyl)quinolin-6-yl)-2-methoxypyridine-3-yl)-2,4-difluorobenzenesulfonamide] | 0.00927 µg/mL (≈ 0.0159 µM) | – | 0.00507 µg/mL (≈ 0.00867 µM) | 0.65 nM | – | 121 to 123 °C | 0.129 µg/mL (≈ 0.221 µM) | IC50 [7]: 2.8 nM; GI50 ([8]; on the 36 tumor cell lines, read-out: average half growth inhibitory concentration (GI50)): < 10 nM; GI50 [8, 20]: 15.1 nM; GI50 [9]: < 10 nM; IC50 [10]: 0.74 nM; GI50 [11]: < 10 nM; IC50 [12]: 1.1 nM; GI50 [13]: < 10 nM; in vitro proliferation inhibition (in words) [14]: high in vitro proliferation inhibition; GI50 [15]: < 10 nM; GI50 [16]: < 10 nM; GI50 [17]: < 10 nM; IC50 [18]: 1.7 nM; GI50 [19]: < 10 nM |
| COc1ncc(-c2ccc3nccc(-n4cncn4)c3c2)cc1NS(=O)(=O)c1ccc(F)cc1F [Compound 1, N-(5-(4-(1H-1,2,4-triazole-1-yl)quinolin-6-yl)-2-methoxypyridine-3-yl)-2,4-difluorobenzenesulfonamide] | 0.00819 µg/mL (≈ 0.0166 µM) | 0.454 µg/mL (≈ 0.918 µM) | 0.011 µg/mL (≈ 0.0222 µM) | 0.55 nM | 1.37 µg/mL (≈ 2.77 µM) | 123 to 124 °C | 0.475 µg/mL (≈ 0.961 µM) | IC50 [7]: 2.6 nM; IC50 [10]: 0.47 nM; IC50 [12]: 1.1 nM; IC50 [18]: 3.6 nM |
| COc1ncc(-c2ccc3nccc(N4CCCC4)c3c2)cc1NS(=O)(=O)c1ccc(F)cc1F [Compound 2] | 1.69 µg/mL (≈ 3.41 µM) | 6.73 µg/mL (≈ 13.6 µM) | 1.65 µg/mL (≈ 3.32 µM) | > 100 nM | 9.83 µg/mL (≈ 19.8 µM) | 223 to 225 °C | 3.32 µg/mL (≈ 6.69 µM) | – |
| COc1ncc(-c2ccc3nccc(N4CCOCC4)c3c2)cc1NS(=O)(=O)c1ccc(F)cc1F [Compound 3, N-(2-methoxy-5-(4-morpholinequinolin-6-yl)pyridin-3-yl)-2,4-difluorobenzenesulfonamide] | 1.23 µg/mL (≈ 2.4 µM) | 2.16 µg/mL (≈ 4.21 µM) | 2.27 µg/mL (≈ 4.43 µM) | 1.4 nM | 11.5 µg/mL (≈ 22.4 µM) | 219 to 221 °C | 64.7 µg/mL (≈ 126 µM) | – |
| COc1ncc(-c2ccc3nccc(-c4ccc(C)cc4)c3c2)cc1NS(=O)(=O)c1ccc(F)cc1F [Compound 6, N-(2-methoxy-5-(4-(p-methylphenyl)quinolin-6-yl)pyridin-3-yl)-2,4-difluorobenzenesulfonamide] | 0.642 µg/mL (≈ 1.24 µM) | 6.69 µg/mL (≈ 12.9 µM) | 1.31 µg/mL (≈ 2.54 µM) | 4.5 nM | 5.63 µg/mL (≈ 10.9 µM) | 175 to 176 °C | 34.7 µg/mL (≈ 67 µM) | – |
| O=S(=O)(Nc1cc(-c2ccc3nccc(-n4cncn4)c3c2)cnc1Cl)c1ccc(F)cc1 [Compound 27, N-(5-(4-(1H-1,2,4-triazole-1-yl)quinolin-6-yl)-2-chlorinepyridin-3-yl)-4-fluorobenzenesulfonamide] | 1.16 µg/mL (≈ 2.41 µM) | – | 1.22 µg/mL (≈ 2.54 µM) | 0.81 nM | 9.43 µg/mL (≈ 19.6 µM) | 258 to 261 °C | – | – |
